Experimental data published in ChEMBL document CHEMBL1146070, “Investigating the role of stereochemistry in the activity of anticancer acylfulvenes: synthesis, reductase-mediated bioactivation, and cellular toxicity” (J Med Chem, 2006).

Tested on: HEK293
Test: Cytotoxicity against HEK293 cells by MTT assay
Type: functional, cell-based
Details: Homo sapiens

Structure (SMILES)	IC50 [nM]
CC1=CC2=C(C)C3(CC3)[C@@](C)(O)C(=O)C2=C1 [ACYLFULVENE]	1400
CC1=C(CO)C2=C(C)C3(CC3)[C@@](C)(O)C(=O)C2=C1 [IROFULVEN]	1200
